Assay results from patent EP4019017A1, “COMPOSITION COMPRISING MELATONIN, PIPERINE AND VITAMIN D, CONTROLLED-RELEASE FORMULATION AND USE THEREOF FOR THE TREATMENT OF SLEEP DISORDERS” (Uriach Consumer Healthcare, S.L., priority 2020, dated 2022).
Like-named read-outs stand apart in the source and are kept apart here.

Key:
[1] = test system: Intestinal cells (Caco-2); test: Intestinal cells - cell viability; assay type: cell-based; parameters: unit not given here
Description: For this purpose, intestinal barrier model (transwell, patented model from Novara University, Italy) is used to determine the rate of passage and therefore to estimate a better pass-effect of melatonin in combination with piperine and vitamin D than melatonin alone. In this phase, vitality will also be assessed in the presence of the treatments alone and in combination with melatonin, in addition to melatonin alone. […] A time-dependent trend can be observed for all tested substances. In addition, substances other than melatonin have an efficacy that resolves within 2-4 hours of treatment.

[2] = cited from earlier work
[3] = test system: Intestinal cells (Caco-2); test: Intestinal absorption rate, intestinal barrier model (transwell), fluorescent tracer; assay type: in vitro ADME
Description: For this purpose, intestinal barrier model (transwell, patented model from Novara University, Italy) is used to determine the rate of passage and therefore to estimate a better pass-effect of melatonin in combination with piperine and vitamin D than melatonin alone. In this phase, vitality will also be assessed in the presence of the treatments alone and in combination with melatonin, in addition to melatonin alone. […] 3.1.b. Intestinal absorption: to determine speed based on the fluorescent tracer, the percentage velocity calculated with respect to the control.

[4] = Time 1 h, Melatonin 1mM, Piperine 5µM, Vitamin D3 1nM, Vitamin B6 500µM

SMILES	Cell viability, Average [1, 4]	Cell viability, Average ([1]; Time 2 h)	Cell viability, Average ([1]; Time 3 h)	Cell viability, Average ([1]; Time 4 h)	Cell viability, Average ([1]; Time 5 h)	Cell viability, Average ([1]; Time 6 h)	solubility ([2]; in alcohol)	solubility ([2]; in water)	Speed (percentage velocity calculated with respect to the control) ([3]; Time 2 h) [%]	Speed (percentage velocity calculated with respect to the control) ([3]; Time 3 h) [%]	Speed (percentage velocity calculated with respect to the control) ([3]; Time 4 h) [%]	Speed (percentage velocity calculated with respect to the control) ([3]; Time 5 h) [%]	Speed (percentage velocity calculated with respect to the control) ([3]; Time 6 h) [%]	Speed (percentage velocity calculated with respect to the control) ([3]; time 1 h) [%]	Speed (percentage velocity calculated with respect to the control) ([3]; time point printed as 30) [%]
COc1ccc2[nH]cc(CCNC(C)=O)c2c1 [Melatonin, N-[2-(5-Methoxy-1H-indol-3-yl)ethyl]acetamide]	13.375	10.905	7.57	6.965	2.57	1.005									
O=C(/C=C/C=C/c1ccc2c(c1)OCO2)N1CCCCC1 [Piperine, (2E,4E)-5-(2H-1,3-Benzodioxol-5-yl)-1-(piperidin-1-yl)penta-2,4-dien-1-one]	6.37	30.25	21.625	14.125	12.32	6.74	soluble	insoluble							
Cc1ncc(CO)c(CO)c1O.Cl [Vitamin B6, Pyridoxine HCI]	11.985	5.215	5.965	9.105	3.565	4.8									
C=C1CC[C@H](O)C/C1=C/C=C1\CCC[C@]2(C)[C@@H]([C@H](C)CCCC(C)C)CC[C@@H]12 [Vitamin D3]	6.91	14.185	18.32	16.325	9.315	0.78			15.00	19.00	17.00	13.00	10.00	10.00	8.00
